From ChEMBL document CHEMBL1139706, “Novel thienopyrrole glycogen phosphorylase inhibitors: synthesis, in vitro SAR and crystallographic studies” (Bioorg Med Chem Lett, 2006)
pIC50: −log10 of the molar value.

Legend:
[1] = target: T1, Glycogen phosphorylase, liver form (Homo sapiens, UniProt P06737); test: Inhibition of recombinant human liver GPa by multienzyme coupled assay
T1 sequence (P06737 whole entry): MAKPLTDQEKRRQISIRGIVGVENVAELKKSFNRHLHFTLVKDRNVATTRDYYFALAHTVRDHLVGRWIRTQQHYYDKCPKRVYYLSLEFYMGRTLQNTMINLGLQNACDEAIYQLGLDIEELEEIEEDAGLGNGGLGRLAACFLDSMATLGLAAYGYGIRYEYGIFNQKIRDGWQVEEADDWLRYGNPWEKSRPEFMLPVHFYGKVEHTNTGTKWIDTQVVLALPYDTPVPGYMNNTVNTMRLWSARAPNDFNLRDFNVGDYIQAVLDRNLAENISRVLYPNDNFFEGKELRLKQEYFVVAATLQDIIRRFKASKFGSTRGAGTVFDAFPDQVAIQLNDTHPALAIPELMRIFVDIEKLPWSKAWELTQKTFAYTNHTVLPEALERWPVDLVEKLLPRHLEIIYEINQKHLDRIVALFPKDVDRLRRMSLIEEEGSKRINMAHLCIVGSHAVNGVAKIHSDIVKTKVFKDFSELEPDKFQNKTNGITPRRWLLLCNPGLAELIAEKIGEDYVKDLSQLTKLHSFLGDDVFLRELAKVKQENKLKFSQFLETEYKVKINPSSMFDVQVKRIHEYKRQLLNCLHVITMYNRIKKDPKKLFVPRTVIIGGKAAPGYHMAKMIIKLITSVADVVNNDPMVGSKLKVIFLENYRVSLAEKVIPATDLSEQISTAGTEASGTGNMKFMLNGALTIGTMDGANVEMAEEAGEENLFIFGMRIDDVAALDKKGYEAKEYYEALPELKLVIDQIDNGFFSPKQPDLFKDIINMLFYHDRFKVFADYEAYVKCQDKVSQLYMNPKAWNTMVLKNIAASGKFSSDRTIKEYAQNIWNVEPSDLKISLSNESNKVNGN

[2] = tested on: Hepatocyte; test: Inhibition of glucose output in glucagon challenged rat hepatocytes; type: functional, cell-based
[3] = target: T2, Glycogen phosphorylase, liver form (Homo sapiens) (UniProt P06737); test: Inhibition of recombinant human liver GPa by multienzyme coupled assay at 10 uM
T2 sequence (whole entry): T1 sequence (P06737 whole entry)

[4] = target: T2, Glycogen phosphorylase, liver form (Homo sapiens); test: Inhibition of recombinant human liver GPa by multienzyme coupled assay at 100 uM

| SMILES | pIC50 [1] | inhibition [3] [%] | inhibition [4] [%] | pIC50 [2] |
| --- | --- | --- | --- | --- |
| O=C(N[C@@H]1Cc2ccccc2[C@H]1O)c1cc2cc(Cl)sc2[nH]1 |  |  |  | 5.44 |
| CN(C)C(=O)[C@H](Cc1ccccc1)NC(=O)c1cc2sc(Br)c(Br)c2[nH]1 | 7.64 |  |  |  |
| CNC(=O)[C@H](Cc1ccccc1)NC(=O)c1cc2scc(Cl)c2[nH]1 | 6.41 |  |  |  |
| O=C(NC1Cc2ccccc2C1)c1cc2sc(Cl)c(Cl)c2[nH]1 | 6.71 |  |  |  |
| O=C(N[C@@H]1Cc2ccc(F)cc2[C@H]1O)c1cc2sc(Cl)c(Cl)c2[nH]1 | 7.31 |  |  | 5.89 |
| O=C(NC1Cc2ccccc2C1)c1cc2cc(Cl)sc2[nH]1 | 6.09 |  |  |  |
| CN(C)C(=O)[C@H](Cc1ccccc1)NC(=O)c1cc2ccsc2[nH]1 | 5.64 |  |  |  |
| CN(C)C(=O)[C@H](Cc1ccccc1)NC(=O)c1cc2sc(Cl)c(Cl)c2[nH]1 | 8.30 |  |  | 6.00 |

Second part, led by results:

| pIC50 [1] | inhibition [3] [%] | inhibition [4] [%] | SMILES | pIC50 [2] |
| --- | --- | --- | --- | --- |
| 7.07 |  |  | O=C(NC1Cc2ccccc2NC1=O)c1cc2cc(Cl)ccc2[nH]1 (configuration not stated) | 5.15 |
| 6.24 |  |  | CNC(=O)[C@H](Cc1ccccc1)NC(=O)c1cc2sc(Cl)cc2[nH]1 |  |
| 7.51 |  |  | CN(C)C(=O)[C@H](Cc1ccccc1)NC(=O)c1cc2cc(Br)sc2[nH]1 | 5.80 |
|  | 20 |  | CN(C)C(=O)[C@H](Cc1ccccc1)NC(=O)c1cc2c(Br)c(Br)sc2[nH]1 |  |
| < 5.00 |  |  | CN(C)C(=O)[C@H](Cc1ccccc1)NC(=O)c1cc2sc(Br)c(Br)c2n1C | 5.96 |
| 7.77 |  |  | CN(C)C(=O)[C@H](Cc1ccccc1)NC(=O)c1cc2cc(Cl)sc2[nH]1 | 5.85 |
| < 5.00 |  |  | CN(C)C(=O)[C@H](Cc1ccccc1)N(C)C(=O)c1cc2sc(Br)c(Br)c2[nH]1 |  |
| 7.29 |  |  | CN(C)C(=O)[C@H](Cc1ccccc1)NC(=O)c1cc2cc(Cl)ccc2[nH]1 | 5.59 |
|  |  | 35 | CN(C)C(=O)[C@H](Cc1ccccc1)NC(=O)c1cc2sccc2[nH]1 |  |
| 7.05 |  |  | O=C(N[C@@H]1Cc2ccc(Cl)cc2[C@H]1O)c1cc2sc(Cl)c(Cl)c2[nH]1 |  |
| 8.05 |  |  | O=C(N[C@@H]1Cc2ccccc2[C@H]1O)c1cc2sc(Cl)c(Cl)c2[nH]1 | 5.82 |
